From ChEMBL document CHEMBL3045791, “Pharmacological screening for anti-inflammatory, analgesic activity of pyrazolyl derivatives along with molecular docking studies” (Med Chem Res, 2012) come the findings set out here.

Data set [1] relates to Rattus norvegicus. The data set can be described thus: Anti-inflammatory activity in Rattus norvegicus Wistar albino (rat) assessed as inhibition of carrageenan-induced hind paw edema at 10 mg/kg, po measured at 3 hr relative to control. It counts as functional. (In general: In the carrageenan paw model, swelling and tenderness develop within hours.)
Data set [2] has as its system Rattus norvegicus. The data set can be described thus: Analgesic activity in Rattus norvegicus Wistar albino (rat) at 20 mg/kg, ip measured at 30 min by tail immersion method relative to control. In kind it is functional. The note with it: route intraperitoneal.
Data set [3] has as its system Rattus norvegicus. The data set is described as follows: Anti-inflammatory activity in Rattus norvegicus Wistar albino (rat) assessed as inhibition of carrageenan-induced hind paw edema at 10 mg/kg, po measured at 4 hr relative to control. In kind it is functional.
In data set [4] the test system is Rattus norvegicus. The data set can be described thus: Ulcerogenic activity in Rattus norvegicus Wistar albino (rat) stomach assessed as ulcer index at 30 mg/kg, po measured after 17 hr relative to control. Also on record: dose 30 mg/kg, route oral. In kind it is toxicity, organism-based. The following applies: in vivo.
Data set [5] has as its system Rattus norvegicus. The data set is described as follows: Antioxidant activity in Rattus norvegicus Wistar albino (rat) stomach assessed as decrease in malondialdehyde content measured per 100 mg of tissue at 30 mg/kg, po after 60 min by spectrophotometric analysis (reference value: 3.86 +/- 0.19 nmol). It counts as functional.

Usually inhibition in vivo stands for the share of the control response that was lost under treatment.

In the case of `Cc1nn(-c2ccccc2)c(Cl)c1/C=N/NC(=O)c1ccc([N+](=O)[O-])cc1`, the inhibition in vivo at 10 mg/kg in the data set on Rattus norvegicus [1] was 12.1%; in the data set on Rattus norvegicus [3], 54.4%. In the data set with Rattus norvegicus [2], this compound returned an Activity of 92.8%.

As for `Cc1nn(-c2ccccc2)c(Cl)c1/C=N/NC(=O)c1ccc(Cl)cc1Cl`, the inhibition in vivo at 10 mg/kg in the data set on Rattus norvegicus [1] worked out at 51.5%; with Rattus norvegicus [3], 74.7%. Moreover, the Activity with Rattus norvegicus [2] amounted to 172.6%.

For `Cc1nn(-c2ccccc2)c(Cl)c1/C=N/NC(=O)COc1ccccc1`, the UI in the data set on Rattus norvegicus [4] was found to be 0.41.

Consider `Cc1nn(-c2ccccc2)c(Cl)c1/C=N/NC(=O)c1ccc(F)cc1`, for which the inhibition in vivo at 10 mg/kg in the data set on Rattus norvegicus [1] was 36.4%; with Rattus norvegicus [3], 67.1%. Further, the Activity in the data set with Rattus norvegicus [2] was found to be 187.8%.

`Cc1nn(-c2ccccc2)c(Cl)c1/C=N/NC(=O)c1ccc(Cl)cc1`: the results for the inhibition in vivo at 10 mg/kg in the data set with Rattus norvegicus [1] and in the data set with Rattus norvegicus [3] were 42.4% and 63.3%, respectively. In the data set with Rattus norvegicus [4], the UI was 0.25. Moreover, the figures for the Activity with Rattus norvegicus [2] and with Rattus norvegicus [5] were 160.4% and 4.51 nmol, respectively.

With `Cc1nn(-c2ccccc2)c(Cl)c1/C=N/NC(=O)Cc1cccc2ccccc12`, the inhibition in vivo at 10 mg/kg in the data set on Rattus norvegicus [1] was found to be 42.4%; with Rattus norvegicus [3] it was 55.7%. For the same compound, the Activity with Rattus norvegicus [2] came to 116.3%.

On to `Cc1nn(-c2ccccc2)c(Cl)c1/C=N/NC(=O)Cc1ccc(Cl)cc1`, for which the inhibition in vivo at 10 mg/kg with Rattus norvegicus [1] was 57.6%; with Rattus norvegicus [3] it was 70.9%. Besides, the Activity with Rattus norvegicus [2] was found to be 193.1%.

On to `Cc1nn(-c2ccccc2)c(Cl)c1/C=N/NC(=O)c1ccccc1Cl`, for which, in the data set on Rattus norvegicus [2], the Activity is listed as 149%.

In the data set with Rattus norvegicus [2], `Cc1nn(-c2ccccc2)c(Cl)c1/C=N/NC(=O)c1ccc(Br)cc1` returned an Activity of 158.7%.

Turning to `O=C(O)Cc1ccccc1Nc1c(Cl)cccc1Cl` [DICLOFENAC], the Activity in the data set with Rattus norvegicus [2] is recorded as 749.3%.

`COc1ccc2c(c1)c(CC(=O)O)c(C)n2C(=O)c1ccc(Cl)cc1` [INDOMETHACIN]: the inhibition in vivo at 10 mg/kg in the data set on Rattus norvegicus [1] was 48.5%; with Rattus norvegicus [3] it was 77.2%. Besides, in the data set with Rattus norvegicus [4], the UI is given as 4.5. For the same compound, the Activity in the data set on Rattus norvegicus [5] is given as 21.98 nmol.
